Tests used:
human HepG2 liver cells [1] = test: Intracellular fat content in HepG2 cells, AdipoRed/Hoechst 33258 double staining, 24 hours; type: cell-based; conditions: HepG2, 0.8 mM palmitoleic acid, 0.1 μM compound, FIG. 10B; for palmitoleic acid-induced increase of intracellular triglyceride content: vs DMSO
Method: The effects of Compound 13-3-1, Compound 13-3-2, Compound 13-3-3, Compound 13-3-5, Compound 13-3-6, Compound 13-3-7, Compound 15-1, Compound 13-3-10 and Compound 13-3-11, as exemplary compounds of the invention, were tested. Human HepG2 liver cells were incubated with 0.8 mM palmitoleic acid in EMEM medium for 24 hours in the presence of 0.1 μM compounds or control vehicle, DMSO. Subsequently, the cells were washed with PBS and the intracellular fat content was measured by AdipoRed/Hoechst 33258 double staining, which was assessed by flourometry.

human HepG2 liver cells [2] = test: Intracellular fat content in HepG2 cells, AdipoRed/Hoechst 33258 double staining, 48 hours; type: cell-based; conditions: HepG2, 0.8 mM palmitoleic acid, 0.1 μM compound, FIG. 10C; for palmitoleic acid-induced increase of intracellular triglyceride content: vs DMSO
Method: And the effects of Compound 001, Compound 004, Compound 006, Compound 013, Compound 132, Compound 133 and Compound 134, as further exemplary compounds of the invention, were also tested. Human HepG2 liver cells were incubated with 0.8 mM palmitoleic acid in EMEM medium for 48 hours in the presence of 0.1 μM compounds of the invention or control vehicle, DMSO. Subsequently, the cells were washed with PBS and the intracellular fat content was measured by AdipoRed/Hoechst 33258 double staining, which was assessed by flourometry.

| Compound | inhibitory effect on fat accumulation as compared to Compound 14-3 (human HepG2 liver cells [1]) | palmitoleic acid-induced increase of intracellular triglyceride content (human HepG2 liver cells [1]) | inhibitory effect on fat accumulation as compared to Compound 14-3 (human HepG2 liver cells [2]) | palmitoleic acid-induced increase of intracellular triglyceride content (human HepG2 liver cells [2]) |
| --- | --- | --- | --- | --- |
| CCN(CC)CCNC(=O)c1c(C)[nH]c(/C=C2\C(=O)Nc3ccc(-c4csc(N5CCCCC5)n4)cc32)c1C [Compound 13-3-2] | comparable or greater | markedly suppressed | – | – |
| Cc1[nH]c(/C=C2\C(=O)Nc3ccc(-c4csc(-c5cccnc5)n4)cc32)c(C)c1C(=O)N1CCN(C)CC1 [Compound 15-1] | comparable or greater | markedly suppressed | – | – |
| CCN(CC)CCNC(=O)CCc1c(C)[nH]c(/C=C2\C(=O)Nc3ccc(-c4csc(-c5ccccc5)n4)cc32)c1C [Compound 13-3-7] | comparable or greater | markedly suppressed | – | – |
| [2H]c1c([2H])c([2H])c(-c2nc(-c3ccc4c(c3)/C(=C/c3[nH]c(C)c(C(=O)NC([2H])([2H])C([2H])([2H])N(C([2H])([2H])C([2H])([2H])[2H])C([2H])([2H])C([2H])([2H])[2H])c3C)C(=O)N4)cs2)c([2H])c1[2H] [Compound 006] | – | – | comparable or greater | markedly suppressed |
| [2H]C([2H])([2H])C([2H])([2H])N(C([2H])([2H])C([2H])([2H])[2H])C([2H])([2H])C([2H])([2H])NC(=O)c1c(C)[nH]c(/C=C2\C(=O)Nc3ccc(-c4csc(-c5ccccc5)n4)cc32)c1C [Compound 004] | – | – | comparable or greater | markedly suppressed |
| CCN(CC)CCC(=O)N1CCN(c2ccc(/C=C3\C(=O)Nc4ccc(-c5csc(-c6ccccc6)n5)cc43)cc2)CC1 [Compound 13-3-6] | comparable or greater | markedly suppressed | – | – |
| [2H]C([2H])(NC(=O)c1c(C)[nH]c(/C=C2\C(=O)Nc3ccc(-c4csc(-c5ccccc5)n4)cc32)c1C)C([2H])([2H])N(CC)CC [Compound 001] | – | – | comparable or greater | markedly suppressed |
| CCN(CC)CCNC(=O)c1c(C)[nH]c(/C=C2\C(=O)Nc3ccc(-c4csc(Nc5ccccc5)n4)cc32)c1C [Compound 13-3-1] | comparable or greater | markedly suppressed | – | – |
| CCN(CC)CCNC(=O)c1c(C)[nH]c(/C=C2\C(=O)Nc3ccc(C4CCN(c5ccccc5)CC4)cc32)c1C [Compound 13-3-11] | comparable or greater | markedly suppressed | – | – |
| CCN(CC)CCNC(=O)c1c(C)[nH]c(/C=C2\C(=O)Nc3cnc(-c4csc(-c5ccccc5)n4)cc32)c1C [Compound 13-3-10] | comparable or greater | markedly suppressed | – | – |
| CCN(CC)CCNC(=O)c1c(C)[nH]c(/C=C2\C(=O)Nc3cccc(-c4cnc(OC)nc4)c32)c1C [Compound 13-3-5] | comparable or greater | markedly suppressed | – | – |
| [2H]c1c([2H])c([2H])c(-c2nc(-c3ccc4c(c3)/C(=C/c3[nH]c(C)c(C(=O)NC([2H])([2H])C([2H])([2H])N(CC)CC)c3C)C(=O)N4)cs2)c([2H])c1[2H] [Compound 013] | – | – | comparable or greater | markedly suppressed |

From patent publication US12390460B2, “Treatment for obesity” (1GLOBE BIOMEDICAL CO., LTD., priority 2018, dated 2025)
